Experiments:
E. coli = test: Antibiotic activity testing (TC50, dilution assay, turbidity); type: cell-based, E. coli (DH5α)
Description: The TC50 or MIC procedure for antibiotic sensitivity testing involves an antibiotic dilution assay, which can be performed in microtitre plates. A series of twofold dilutions of each antibiotic are made in the wells, and then all wells are inoculated with a standard amount of the same test organism. After incubation, growth in the presence of the various antibiotics is observed by measuring turbidity.
Bacteria: B. pumilus and E. coli (DH5α)
Bacterial cultures are initiated from the plates for 2 to 3 weeks. After this time period bacteria are streaked out on new plates from the backups stored at −80° C. Due to the lack of resistance of the bacteria, new cultures are not to be initiated from an old plate or any liquid cultures derived from old plates.
Growth medium (GM) (per liter): 10 g Bacto-tryptone, 5 g Bacto-yeast extract, 6 g HEPES (25 mM), 5.4 g NaCl, pH 7.3
Compound stocks 10 or 100 mM in DMSO stored at −20° C.
• 1. Grow B. pumilus from an LB agar plate in a flask (max. 10% volume) up to about 50 ml in growth medium (GM) • 2. Dilute overnight suspension 1:10 in GM • 3. Determine OD600 of diluted bacterial suspension • 4. Dilute bacterial suspension in GM to an OD600 of 0.03-0.04. (6 ml/plate) • 5. Add 200 μl GM to the outer wells (Row A, Row H, Column 1, Column 12) • 6. Add 100 μl GM to each well starting from C2, row 3. • 7. […]
8.3. […] Determine OD600 on plate reader.

white blood cells = test: Immune cell selective uptake (immune selectivity ratio) in blood cell / buffy coat preparations; type: cell-based; settings: fluorescent compounds, FIG. 1
Description: Freshly drawn heparinised blood or buffy coat preparations are used for the determination of immune cell partition ratios. Buffy coat preparations are preferred. These may be obtained from donor blood by simple centrifugation of whole blood (4795 g for 10 minutes). Following centrifugation, plasma is collected from the surface, after which immune cells are expressed from the donor bags along with the erythrocytes lying immediately below the leukocyte layer. This ensures high yields and a sufficient population of erythrocytes for partition. 5 ml of the resulting cell suspension are dispensed into T25 culture flasks. Substrates are added to a final concentration between 1 and 10 μM and the suspensions incubated at 37° C., in a 5% CO2 atmosphere. For analysis of uptake kinetics, samples are withdrawn at 0, 2, 5, 10, 30, 60, 90, 180, or 240 min after substrate addition. For screening purposes, samples are taken at 0 and 120 minutes. […]
Uptake of fluorescent compounds is monitored using fluorescence microscopy. Excitation and emission wavelengths depend of the fluorescence label in use. […]
Cell lysates are analysed using a HP 1100 HPLC System (Agilent Technologies, Waldbronn, Germany) with a Kromasil 3.5μ […], 50×2.0 mm column and guard cartridge system (both, Phenomenex, Aschaffenburg, Germany) run at 30° C. […]
Masses are monitored according to the known or expected M/Z ratios. […]

Structure (SMILES)	TC50 in E. coli (E. coli)	uptake rate (white blood cells)
CCC1OC(=O)C(C)C(OC2CC(C)(OC)C(O)C(C)O2)C(C)C(OC2OC(C)CC(NC)C2O)C(C)(O)CC(C)CN(C)C(C)C(O)C1(C)O (centres unmarked) [Compound 96]	28 µM	–
COc1cc(C)c(/C(=C\C(C)=O)CC(N)C(=O)O)cc1OC (centres unmarked) [Compound 4]	–	rapid

— patent publication US8357506B2, “Method of identifying improved conjugates of biologically active compounds” (priority 2002, dated 2013)
